# “Also recorded” adds a separate entry of the source.
# Columns and labels:
# [1] = system: Salmonella Typhimurium TA-98; experiment: Modified Maron-Ames test, strain TA-98; settings: for cytotoxicity: strain TA-98, with microsomal enzyme S-9 activation, no effect on the background lawn; for mutagenicity (revertant colonies): strain TA-98, with or without metabolic activation S-9
# Procedure: (§1) Serial dilutions (100 fold) were made with DMSO to obtain samples with dilution factors of 10^−3, 10^−5, and 10^−7. The assays were performed according to the modified methods of Maron and Ames (Maron D. R. and Ames, B. N. Mutation Research, 1980, Vol. 113, 173-215) using two strains of Salmonella Typhimurium TA-98 and TA-100, with and without metabolic activation of the substrate. The male rat microsomal homogenate S-9 was used to effect metabolic activation of the substrate. TA-98 and TA-100 were cultured in Oxoid Nutrient Broth No.2 at 37° C. for 16 hours using a gyratory shaker (200-250 rpm).
# (§2) Compounds were assayed after the bacteria tested positive for the viability-related criteria above. Two mL top agar was placed in sterile culture tubes and kept at ˜40° C. in a water bath. Samples (100 μL) were placed in each tube (3 tubes per sample) and 100 μL of either strain TA-98 or TA-100 was added. When required, the S-9 homogenate (500 μL) was then added. The tubes were mixed and poured into minimal glucose agar plates. The plates were left at room temperature until the top agar solidified. Then, they were inverted and incubated at 37° C. for 48 hours. After incubation, revertant colonies were counted. Samples that presented greater than 2 times the number of revertant colonies were considered mutagenic. (See FIGS. 9(a) through (f)).
# [2] = system: Salmonella Typhimurium TA-100; experiment: Modified Maron-Ames test, strain TA-100; settings: for dilution at which a mutagenic response was observed: dilution in DMSO
# Procedure: as §1, with “Serial dilutions (100 fold) were made with DMSO to obtain samples with dilution factors of 10^−3, 10^−5, and 10^−7.” left out
# as §2
Molecule,cytotoxicity [1],mutagenicity (revertant colonies) [1],"cytotoxicity and mutagenicity, overall conclusion ([1]; tester strain TA-98, all concentrations)","dilution at which a mutagenic response was observed ([2]; strain TA-100, with S-9 activation)","dilution at which a mutagenic response was observed ([2]; strain TA-100, without S-9 activation)","cytotoxicity ([2]; Maron-Ames tests, about 10 mg/mL concentration in DMSO, strain not stated)",cytotoxicity ([2]; dilution factors of 10^−1),"mutagenic response ([2]; strain TA-100, dilution factor 10^−1 in DMSO, with or without S-9 activation)","revertant colonies ([2]; strain TA-100, dilution factor 10^−2)"
"CC(C)(c1ccc(OCC2CO2)cc1)c1ccc(OCC2CO2)cc1 (stereo not shown) [DGEBA, diglycidyl ether of bisphenol-A]",slightly cytotoxic,no apparent mutagenicity,neither cytotoxic nor mutagenic,greater than 10^−3,greater than 10^−5,–,–,–,–
epoxyallyl sucrose [EAS],slightly cytotoxic,–,–,–,–,–,–,–,–
epoxycrotyl sucrose [ECS],slightly cytotoxic,–,–,–,–,–,–,–,–
epoxymethallyl sucrose [EMS],slightly cytotoxic,no apparent mutagenicity; also recorded: no mutagenic response,–,–,–,borderline cytotoxicity,borderline cytotoxic,mutagenic response was observed,had not doubled

# Source: patent US20040210047A1, “Methallyl sucroses and their epoxy derivatives” (priority 2003, published 2004)
